This is an account of results in ChEMBL document CHEMBL1141677, “Synthesis and structure-antibacterial activity of triazolyl oxazolidinones containing long chain acyl moiety” (2008).

In brackets after ≈: the same amount, converted by molar mass.

Type in all cases: functional
Experiment [1] concerns Enterococcus. Kind of experiment: Antibacterial activity against vancomycin-sensitive Enterococcus after 18 hrs by agar dilution method.
Experiment [2] relates to Staphylococcus aureus. Kind of experiment: Antibacterial activity against methicillin-susceptible Staphylococcus aureus clinical isolate after 18 hrs by agar dilution method. (In general: Agar dilution tests growth on a series of plates holding different concentrations.)
Experiment [3] has as its system Staphylococcus aureus. Kind of experiment: Antibacterial activity against methicillin-resistant Staphylococcus aureus clinical isolate after 18 hrs by agar dilution method. Particulars: for MIC: Staphylococcus aureus, 18 h.
A further experiment deals with Streptococcus pneumoniae. Kind of experiment: Antibacterial activity against penicillin-resistant Streptococcus pneumoniae after 18 hrs by agar dilution method.
Another experiment deals with Escherichia coli. Kind of experiment: Antibacterial activity against Escherichia coli ATCC 25922 after 18 hrs by agar dilution method. The settings on record: ATCC 25922, 18 h.
In a further experiment the test system is Moraxella catarrhalis. Kind of experiment: Antibacterial activity against Moraxella catarrhalis clinical isolate after 18 hrs by agar dilution method.
In experiment [4] the test system is Staphylococcus aureus. Kind of experiment: Antibacterial activity against Staphylococcus aureus ATCC 25923 after 18 hrs by agar dilution method. The settings on record: for MIC: Staphylococcus aureus, ATCC 25923, 18 h.
The subject of experiment [5] is Staphylococcus. Description: Antibacterial activity against methicillin-susceptible coagulase-negative Staphylococcus clinical isolate after 18 hrs by agar dilution method.
A further experiment relates to Haemophilus influenzae. Description: Antibacterial activity against Haemophilus influenzae clinical isolate after 18 hrs by agar dilution method.
The subject of experiment [6] is Staphylococcus. Kind of experiment: Antibacterial activity against methicillin-resistant coagulase-negative Staphylococcus clinical isolate after 18 hrs by agar dilution method.
Experiment [7] relates to Enterococcus. Description: Antibacterial activity against vancomycin-resistant Enterococcus after 18 hrs by agar dilution method.
Experiment [8] has as its system Staphylococcus aureus. Description: Antibacterial activity against Staphylococcus aureus ATCC 25923 after 18 hrs by agar dilution method in presence of 50% human plasma. Particulars: ATCC 25923, Plasma.

As to `CCC(=O)N1CCN(c2ccc(N3C[C@H](Cn4ccnn4)OC3=O)cc2F)CC1`, the MIC was 0.5 µg/mL (≈ 1.24 µM) in the experiment on Enterococcus [1]; 1 µg/mL (≈ 2.48 µM) in the experiment on Staphylococcus aureus [2]; 1 µg/mL (≈ 2.48 µM) against Staphylococcus aureus [3]; 1 µg/mL (≈ 2.48 µM) against Streptococcus pneumoniae; not below 8 µg/mL against Escherichia coli; not below 8 µg/mL with Moraxella catarrhalis. The MIC with Staphylococcus aureus [4] is 1 µg/mL (≈ 2.48 µM); in the experiment on Staphylococcus [5], 0.12 µg/mL (≈ 0.298 µM); in the experiment on Haemophilus influenzae, not below 8 µg/mL; in the experiment with Staphylococcus [6], 1 µg/mL (≈ 2.48 µM); in the experiment on Enterococcus [7], 1 µg/mL (≈ 2.48 µM); with Staphylococcus aureus [8] it was 1 µg/mL. Besides, the “-logMIC” value with Staphylococcus aureus [3] and in the experiment on Staphylococcus aureus [4] was 2.6 in each case.
Consider `CC(=O)N1CCN(c2ccc(N3C[C@H](Cn4ccnn4)OC3=O)cc2F)CC1`, for which the MIC with Enterococcus [1] is 0.5 µg/mL (≈ 1.29 µM); in the experiment on Staphylococcus aureus [2], 0.5 µg/mL (≈ 1.29 µM); in the experiment on Staphylococcus aureus [3], 0.25 µg/mL (≈ 0.644 µM); with Streptococcus pneumoniae, 0.5 µg/mL (≈ 1.29 µM); in the experiment on Escherichia coli, not below 8 µg/mL; against Moraxella catarrhalis, not below 8 µg/mL. The MIC in the experiment with Staphylococcus aureus [4] is 1 µg/mL (≈ 2.57 µM); in the experiment with Staphylococcus [5], 0.25 µg/mL (≈ 0.644 µM); against Haemophilus influenzae, not below 8 µg/mL; in the experiment on Staphylococcus [6] it was 0.25 µg/mL (≈ 0.644 µM); with Enterococcus [7], 0.25 µg/mL (≈ 0.644 µM); in the experiment with Staphylococcus aureus [8], 1 µg/mL. Also, the “-logMIC” value worked out at 3.19 in the experiment with Staphylococcus aureus [3] and 2.59 in the experiment on Staphylococcus aureus [4].
